{"source": "paper PMC6602958", "about": "“Pharmacokinetics of anti-infectious reagents in silkworms” (Scientific Reports, 2019)", "key": {"cytochrome P450 [1]": {"test_system": "cytochrome P450", "assay": "7-ethoxycoumarin deethylation activity in silkworm tissue culture (fluorometry)", "assay_type": "in vitro ADME, Bombyx mori (silkworm)", "conditions": "midgut incubated with 7-ethoxycoumarin and cimetidine at 30 °C", "protocol": "Figure 2 Tissue specificity of 7-ethoxycoumarin deethylation activity in silkworm. (A) The midgut, fat body, silk gland, and Malpighian tubule were extirpated from silkworms and incubated in medium containing 7-ethoxycoumarin at 30 °C. Medium was collected, extracted by acetone, and evaporated. Samples […] in 50 mM NaOAc buffer (pH 6.0) were treated with beta-glucosidase. The amount of 7-hydroxycomarin, a metabolite, was determined by fluorometry. (B) Inhibition of 7-ethoxycoumarin deethylation by cimetidine in the silkworm midgut. Silkworm midgut was incubated in medium containing 7-ethoxycoumarin and cimetidine at 30 °C. Samples were collected, extracted by acetone, and treated with beta-glucosidase. The amount of 7-hydroxycomarin was determined by fluorometry.\nSamples for HPLC were dissolved in 50% methanol."}, "cytochrome P450 [2]": {"test_system": "cytochrome P450", "assay": "Decay of cytochrome P450 substrates in in vitro culture of the silkworm midgut (HPLC)", "conditions": "for HPLC peak area of substrate, Sample 1 / HPLC peak area of substrate, Sample 2: midgut culture, raw data of Fig. 3; for HPLC peak area of substrate: silkworm (Bombyx mori)", "protocol": "Silkworm midgut was incubated in medium with cytochrome P450 substrates at 30 °C. The samples were collected, extracted by acetone, and evaporated. The amounts of substrates were determined by HPLC analysis.\nSilkworms (5th instar, 5 days) were dissected in a buffer (10 mM HEPES/NaOH, 0.9% NaCl, pH 7.9), and isolated organs were incubated with 3 mL TC-100 medium containing 10% fetal bovine serum, 50 µg/ml gentamicin, and substrates for the metabolic reaction. Whole samples (medium and organ) were homogenized and extracted by equal volumes of acetone followed by evaporation. Extracted samples were dissolved in 50 mM NaOAc buffer and treated with beta-glucosidase to measure the fluorescence of metabolized 7-ethoxycoumarin[6]. […] Samples for HPLC were dissolved in 50% methanol. HPLC analysis was performed using a PEGASIL ODS SP column (φ4.5 mm × 250 mm) with isocratic elution at a flow rate of 1 ml/min."}, "cytochrome P450 [3]": {"test_system": "cytochrome P450", "assay": "Metabolism of luciferin derivatives in cultured silkworm midgut (P450-Glo, luminometer)", "assay_type": "in vitro ADME, Bombyx mori (silkworm)", "conditions": "silkworm midgut incubated with luciferin substrate at 30 °C"}, "[4]": {"assay": "Protein-binding capacity in silkworm hemolymph (filter unit, HPLC)", "conditions": "silkworm hemolymph"}, "[5]": {"assay": "Pharmacokinetics of antibiotics in silkworm hemolymph after injection (HPLC)", "conditions": "for HPLC peak area in hemolymph: silkworm (Bombyx mori)", "protocol": "Antibiotics were injected into silkworm hemolymph and hemolymph was collected by cutting the legs at the indicated time.\nAntibiotics dissolved in saline were injected into the hemolymph of 5th instar silkworms using a 1-mL syringe attached to a 27 G needle. Hemolymph was harvested from abdominal appendages by cutting them with scissors at the indicated time-points after administration, and mixed with an equal volume of acetone. Samples were centrifuged at 15,000 rpm for 5 min at 4 °C, and the supernatants were evaporated with a centrifuge evaporator[18]. The dried materials were dissolved in 50% methanol and filtrated through a 0.45-µm filter. […] The amount of antibiotics in the sample was quantified from the peak area of the chromatogram."}, "Candida albicans [6]": {"test_system": "Candida albicans", "assay": "Silkworm infection model with Candida albicans (ED50)", "assay_type": "in vivo, Bombyx mori (silkworm)"}, "Candida albicans [7]": {"test_system": "Candida albicans", "assay": "Antifungal activity (MIC) by micro dilution with or without silkworm hemolymph", "assay_type": "cell-based", "protocol": "Antimicrobial and antifungal activities of each compound were measured by a micro dilution method[19],[20]. To measure protein binding to antifungal activity, silkworm hemolymph was collected by cutting the pseudopodium using scissors, and centrifuged at 3000 rpm for 5 min at 4 °C."}, "[8]": {"conditions": "dog, cited from earlier work"}, "[9]": {"conditions": "in vivo, 10 mg/kg; cited from earlier work"}}, "note": "Where two headings read alike, the source gives them in different places."}
{"compound": "CN/C(=N/CCSCc1nc[nH]c1C)NC#N", "note": "[cimetidine]", "values": [{"measurement": "Inhibition of 7-ethoxycoumarin deethylation in the silkworm midgut (in words)", "setting": "cytochrome P450 [1]", "result": "inhibited this reaction in the midgut"}]}
{"compound": "Cn1c(=O)c2c(ncn2C)n(C)c1=O", "note": "[Caffeine]", "values": [{"measurement": "HPLC peak area of substrate, Sample 1", "setting": "cytochrome P450 [2]; 0 h", "result": 236597}, {"measurement": "HPLC peak area of substrate, Sample 2", "setting": "cytochrome P450 [2]; 0 h", "result": 235789}, {"measurement": "HPLC peak area of substrate, Sample 1", "setting": "cytochrome P450 [2]; 1 h", "result": 225184}, {"measurement": "HPLC peak area of substrate, Sample 2", "setting": "cytochrome P450 [2]; 1 h", "result": 213119}, {"measurement": "HPLC peak area of substrate, Sample 1", "setting": "cytochrome P450 [2]; 4 h", "result": 220757}, {"measurement": "HPLC peak area of substrate, Sample 2", "setting": "cytochrome P450 [2]; 4 h", "result": 220302}, {"measurement": "HPLC peak area of substrate, Sample 1", "setting": "cytochrome P450 [2]; 20 h", "result": 226873}, {"measurement": "HPLC peak area of substrate, Sample 2", "setting": "cytochrome P450 [2]; 20 h", "result": 222211}]}
{"compound": "CC(C)OC(OC(C)C)C1CSC(c2nc3ccc(O)cc3s2)=N1", "note": "(centres unmarked) [Luciferin-IPA]", "values": [{"measurement": "Production of luciferin (RFU/organ)", "setting": "cytochrome P450 [3]", "result": "198,000 RFU/organ"}]}
{"compound": "O=C(O)Cc1ccccc1Nc1c(Cl)cccc1Cl", "note": "[Diclofenac]", "values": [{"measurement": "Metabolism in the silkworm midgut (in words)", "setting": "cytochrome P450 [2]", "result": "metabolized in the silkworm midgut"}, {"measurement": "HPLC peak area of substrate", "setting": "cytochrome P450 [2]; 0 h", "result": 2620000}, {"measurement": "HPLC peak area of substrate", "setting": "cytochrome P450 [2]; 1 h", "result": 2450000}, {"measurement": "HPLC peak area of substrate", "setting": "cytochrome P450 [2]; 4 h", "result": 2250000}, {"measurement": "HPLC peak area of substrate", "setting": "cytochrome P450 [2]; 20 h", "result": 1370000}]}
{"compound": "OC(Cn1cncn1)(Cn1cncn1)c1ccc(F)cc1F", "note": "[Fluconazole]", "values": [{"measurement": "fraction unbound at 10 min, 10 µM", "setting": "[4]", "result": 0.35}, {"measurement": "half-life", "setting": "[5]; hemolymph", "result": 12, "unit": "h"}, {"measurement": "Cltot (total body clearance)", "setting": "[5]; in vivo", "result": 0.02, "unit": "mL/g/h"}, {"measurement": "Time-course of the decrease in concentration in hemolymph (in words)", "setting": "[5]; in vivo", "result": "biphasic"}, {"measurement": "HPLC peak area in hemolymph", "setting": "[5]; in vivo, 0.1 min", "result": 4424583}, {"measurement": "HPLC peak area in hemolymph", "setting": "[5]; in vivo, 1 min", "result": 3714240}, {"measurement": "HPLC peak area in hemolymph", "setting": "[5]; in vivo, 5 min", "result": 1821531}, {"measurement": "HPLC peak area in hemolymph", "setting": "[5]; in vivo, 10 min", "result": 2367593}, {"measurement": "HPLC peak area in hemolymph", "setting": "[5]; in vivo, 20 min", "result": 2257323}, {"measurement": "HPLC peak area in hemolymph", "setting": "[5]; in vivo, 30 min", "result": 2040721}, {"measurement": "HPLC peak area in hemolymph", "setting": "[5]; in vivo, 60 min", "result": 1663340}, {"measurement": "HPLC peak area in hemolymph", "setting": "[5]; in vivo, 105 min", "result": 1575678}, {"measurement": "HPLC peak area in hemolymph", "setting": "[5]; in vivo, 120 min", "result": 1440231}, {"measurement": "HPLC peak area in hemolymph", "setting": "[5]; in vivo, 180 min", "result": 1474050}, {"measurement": "HPLC peak area in hemolymph", "setting": "[5]; in vivo, 240 min", "result": 1455753}, {"measurement": "HPLC peak area in hemolymph", "setting": "[5]; in vivo, 360 min", "result": 1088734}, {"measurement": "Therapeutic effect in the silkworm infection model (in words)", "setting": "Candida albicans [6]; silkworm infection model", "result": "potent therapeutic effects at a low dose"}, {"measurement": "ED50", "setting": "Candida albicans [6]; silkworm infection model with Candida albicans", "result": 0.7, "unit": "mg/kg"}, {"measurement": "MIC", "setting": "Candida albicans [7]; read-out: MIC with 10% hemolymph (B), with 10% silkworm hemolymph", "result": 3.2, "unit": "µg/mL"}, {"measurement": "MIC", "setting": "Candida albicans [7]; without silkworm hemolymph, read-out: MIC without hemolymph (A)", "result": 0.4, "unit": "µg/mL"}, {"measurement": "Vdss", "setting": "[8]; dose 10 mg/kg", "result": 0.7, "unit": "mL/g"}, {"measurement": "t1/2", "setting": "[8]; dose 10 mg/kg", "result": 13.0, "unit": "h"}, {"measurement": "Cltot", "setting": "[8]; in vivo, 10 mg/kg", "result": 0.04, "unit": "mL/g/h"}]}
{"compound": "O=C(N[C@H](CO)[C@H](O)c1ccc([N+](=O)[O-])cc1)C(Cl)Cl", "note": "[Chloramphenicol]", "values": [{"measurement": "Cltot (total body clearance)", "setting": "[5]; in vivo", "result": 0.15, "unit": "mL/g/h"}, {"measurement": "Time-course of the decrease in concentration in hemolymph (in words)", "setting": "[5]; in vivo", "result": "biphasic"}, {"measurement": "half-life", "setting": "[5]; in vivo", "result": 6, "unit": "h"}, {"measurement": "HPLC peak area in hemolymph", "setting": "[5]; in vivo, 0.1 min", "result": 10505876}, {"measurement": "HPLC peak area in hemolymph", "setting": "[5]; in vivo, 1 min", "result": 8079061}, {"measurement": "HPLC peak area in hemolymph", "setting": "[5]; in vivo, 5 min", "result": 4188656}, {"measurement": "HPLC peak area in hemolymph", "setting": "[5]; in vivo, 10 min", "result": 3076056}, {"measurement": "HPLC peak area in hemolymph", "setting": "[5]; in vivo, 20 min", "result": 2727973}, {"measurement": "HPLC peak area in hemolymph", "setting": "[5]; in vivo, 30 min", "result": 1928231}, {"measurement": "HPLC peak area in hemolymph", "setting": "[5]; in vivo, 60 min", "result": 2239912}, {"measurement": "HPLC peak area in hemolymph", "setting": "[5]; in vivo, 90 min", "result": 1941121}, {"measurement": "HPLC peak area in hemolymph", "setting": "[5]; in vivo, 120 min", "result": 1803643}, {"measurement": "HPLC peak area in hemolymph", "setting": "[5]; in vivo, 180 min", "result": 1414738}, {"measurement": "HPLC peak area in hemolymph", "setting": "[5]; in vivo, 240 min", "result": 1202608}, {"measurement": "Cltot", "setting": "[9]", "result": 0.24, "unit": "mL/g/h"}]}
